Measurements taken from ChEMBL document CHEMBL5465560, “Selectivity Literature for EUbOPEN Chemogenomic Library” (2024).
One block for each molecule: values may come before it.

Key:
[1] = molecular target: T1, Serine/threonine-protein kinase D3 (Homo sapiens) (UniProt O94806); experiment: Selectivity interaction (KinomeScan (DiscoverX)) EUB0000607a PRKD3; conditions: at 10 µM
T1 sequence (whole entry): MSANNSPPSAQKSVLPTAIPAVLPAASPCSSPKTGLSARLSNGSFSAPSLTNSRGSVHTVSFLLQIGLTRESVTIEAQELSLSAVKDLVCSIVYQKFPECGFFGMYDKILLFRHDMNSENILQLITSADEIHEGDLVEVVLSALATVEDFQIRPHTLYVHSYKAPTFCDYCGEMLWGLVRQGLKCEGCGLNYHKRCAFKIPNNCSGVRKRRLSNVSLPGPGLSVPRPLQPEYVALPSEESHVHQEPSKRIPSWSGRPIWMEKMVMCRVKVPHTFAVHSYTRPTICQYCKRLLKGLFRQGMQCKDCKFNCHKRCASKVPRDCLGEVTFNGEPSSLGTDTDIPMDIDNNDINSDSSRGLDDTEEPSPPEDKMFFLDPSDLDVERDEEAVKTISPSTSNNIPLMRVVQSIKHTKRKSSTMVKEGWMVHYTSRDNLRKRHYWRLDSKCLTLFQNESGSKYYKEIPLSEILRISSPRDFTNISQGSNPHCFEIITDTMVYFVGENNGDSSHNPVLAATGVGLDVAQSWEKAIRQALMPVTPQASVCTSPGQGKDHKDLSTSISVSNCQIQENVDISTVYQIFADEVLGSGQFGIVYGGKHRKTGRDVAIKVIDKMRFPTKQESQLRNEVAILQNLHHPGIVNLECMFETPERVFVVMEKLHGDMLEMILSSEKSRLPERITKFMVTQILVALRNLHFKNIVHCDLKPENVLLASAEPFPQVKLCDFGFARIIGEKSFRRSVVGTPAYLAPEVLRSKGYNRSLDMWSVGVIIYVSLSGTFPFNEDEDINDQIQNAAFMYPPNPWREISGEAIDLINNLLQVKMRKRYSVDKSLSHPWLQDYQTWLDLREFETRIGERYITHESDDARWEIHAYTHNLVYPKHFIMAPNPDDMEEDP

[2] = molecular target: T2, Mitogen-activated protein kinase 12 (Homo sapiens) (UniProt P53778); conditions: at 10 µM
T2 sequence (whole entry): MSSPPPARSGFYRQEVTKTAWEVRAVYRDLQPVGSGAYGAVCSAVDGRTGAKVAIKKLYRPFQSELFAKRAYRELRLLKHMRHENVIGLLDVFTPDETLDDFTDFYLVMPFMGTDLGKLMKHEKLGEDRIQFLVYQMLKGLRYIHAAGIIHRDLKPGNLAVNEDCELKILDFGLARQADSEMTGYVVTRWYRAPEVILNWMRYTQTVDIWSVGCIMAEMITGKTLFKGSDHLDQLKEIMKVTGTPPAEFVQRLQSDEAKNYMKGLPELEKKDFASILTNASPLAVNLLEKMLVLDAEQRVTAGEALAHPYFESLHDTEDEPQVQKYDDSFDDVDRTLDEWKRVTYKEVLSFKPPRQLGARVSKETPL

[3] = molecular target: T3, Ephrin type-B receptor 4 (Homo sapiens) (UniProt P54760); experiment: Selectivity interaction (Millipore kinase profiler) EUB0000124b EPHB4; conditions: at 10 µM
T3 sequence (whole entry): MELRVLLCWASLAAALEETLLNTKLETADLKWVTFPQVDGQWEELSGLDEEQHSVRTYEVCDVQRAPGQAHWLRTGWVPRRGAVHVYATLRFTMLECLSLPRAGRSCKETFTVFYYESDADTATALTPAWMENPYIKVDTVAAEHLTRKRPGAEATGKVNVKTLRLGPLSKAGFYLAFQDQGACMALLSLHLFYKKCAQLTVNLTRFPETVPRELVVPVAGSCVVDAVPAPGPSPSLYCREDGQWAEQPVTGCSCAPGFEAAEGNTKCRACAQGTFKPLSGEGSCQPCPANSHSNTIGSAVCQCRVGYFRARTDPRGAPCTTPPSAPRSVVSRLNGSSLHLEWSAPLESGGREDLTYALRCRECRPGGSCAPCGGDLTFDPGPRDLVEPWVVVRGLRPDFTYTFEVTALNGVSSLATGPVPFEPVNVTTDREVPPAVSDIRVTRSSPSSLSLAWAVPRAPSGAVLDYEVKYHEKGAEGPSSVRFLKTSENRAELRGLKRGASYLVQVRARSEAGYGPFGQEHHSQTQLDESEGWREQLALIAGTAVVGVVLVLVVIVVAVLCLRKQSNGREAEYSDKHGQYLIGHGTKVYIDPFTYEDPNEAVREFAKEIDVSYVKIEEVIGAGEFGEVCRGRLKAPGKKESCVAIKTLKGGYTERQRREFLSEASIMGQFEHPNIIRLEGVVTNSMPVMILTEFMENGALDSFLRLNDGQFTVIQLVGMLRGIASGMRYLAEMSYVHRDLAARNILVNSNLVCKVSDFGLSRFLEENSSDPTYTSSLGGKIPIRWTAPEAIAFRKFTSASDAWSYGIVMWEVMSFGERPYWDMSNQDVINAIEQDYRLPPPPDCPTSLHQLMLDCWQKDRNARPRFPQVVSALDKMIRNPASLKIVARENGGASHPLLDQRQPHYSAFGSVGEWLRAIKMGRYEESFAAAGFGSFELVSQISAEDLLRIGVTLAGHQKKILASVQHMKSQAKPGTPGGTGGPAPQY

[4] = molecular target: Serine/threonine-protein kinase 26 (Homo sapiens, UniProt Q9P289)
Chain of Serine/threonine-protein kinase 26 (Q9P289 whole entry): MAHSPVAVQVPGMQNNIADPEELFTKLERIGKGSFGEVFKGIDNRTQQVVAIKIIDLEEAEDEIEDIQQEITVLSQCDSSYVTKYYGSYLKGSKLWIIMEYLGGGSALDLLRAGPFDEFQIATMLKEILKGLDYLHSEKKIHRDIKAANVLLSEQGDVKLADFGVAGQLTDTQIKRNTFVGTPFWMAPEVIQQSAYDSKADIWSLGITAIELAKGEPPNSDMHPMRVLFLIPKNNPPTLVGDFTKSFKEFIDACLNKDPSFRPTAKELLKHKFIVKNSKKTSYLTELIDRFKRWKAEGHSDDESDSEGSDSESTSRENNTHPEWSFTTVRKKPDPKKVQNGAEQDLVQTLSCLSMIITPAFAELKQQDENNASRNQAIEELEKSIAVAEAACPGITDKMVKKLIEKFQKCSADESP

[5] = molecular target: Ribosomal protein S6 kinase alpha-2 (Homo sapiens) (UniProt Q15349); experiment: Selectivity interaction (ActivX KiNativ screen (ex vivo kinase selectivity in human PBMCs)) EUB0001619a RPS6KA2; assay type: cell-based; conditions: PBMC, at 1 µM
Chain of Ribosomal protein S6 kinase alpha-2 (Homo sapiens) (Q15349 whole entry): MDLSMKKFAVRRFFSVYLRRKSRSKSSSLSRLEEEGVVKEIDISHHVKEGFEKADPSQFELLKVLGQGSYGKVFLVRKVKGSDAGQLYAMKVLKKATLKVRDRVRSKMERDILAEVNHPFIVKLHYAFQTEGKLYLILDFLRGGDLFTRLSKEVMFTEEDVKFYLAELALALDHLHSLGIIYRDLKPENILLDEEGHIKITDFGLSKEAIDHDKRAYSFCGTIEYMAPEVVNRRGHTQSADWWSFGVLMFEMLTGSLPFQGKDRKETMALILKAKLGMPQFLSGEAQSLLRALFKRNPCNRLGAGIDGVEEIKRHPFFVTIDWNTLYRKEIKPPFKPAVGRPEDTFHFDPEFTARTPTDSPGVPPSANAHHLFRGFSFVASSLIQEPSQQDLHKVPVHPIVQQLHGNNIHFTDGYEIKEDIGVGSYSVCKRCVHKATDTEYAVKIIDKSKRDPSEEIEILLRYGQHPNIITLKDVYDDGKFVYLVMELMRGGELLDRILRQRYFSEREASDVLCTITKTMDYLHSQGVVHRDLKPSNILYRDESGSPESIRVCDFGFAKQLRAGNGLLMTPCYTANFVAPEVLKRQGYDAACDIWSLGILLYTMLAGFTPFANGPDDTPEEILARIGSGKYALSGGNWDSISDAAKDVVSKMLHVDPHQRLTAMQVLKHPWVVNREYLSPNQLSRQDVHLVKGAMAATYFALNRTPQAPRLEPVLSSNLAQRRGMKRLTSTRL

SMILES: CNC(=O)Nc1ccc(-c2nc(N3CC4CCC(C3)O4)c3cnn(C4CCC5(CC4)OCCO5)c3n2)cc1
% of control [1]: 100%

SMILES: CCN(CC)CCCCNc1ncc2cc(-c3cc(OC)cc(OC)c3)c(NC(=O)NC(C)(C)C)nc2n1
% of control [2]: 100%

SMILES: N#Cc1cccc(-c2c[nH]c3ncnc(N4CCOCC4)c23)c1
% of inhibition [5]: 13%

Other lines, results leading:

% of control [3]: 124%
SMILES: CC(=O)Nc1cccc(-n2c(=O)n(C3CC3)c(=O)c3c(Nc4ccc(I)cc4F)n(C)c(=O)c(C)c32)c1

IC50 [4]: > 10 µM
SMILES: CCc1cccc(CC)c1NC(=O)c1nn(C)c2c1CCc1cnc(Nc3ccc(C(=O)NC4CCN(C)CC4)cc3OC(F)(F)F)nc1-2
